Measured values as given in patent US5919761A, “Peptides for heparin and low molecular weight heparin anticoagulation reversal” (The Board of Regents of the University of Michigan, priority 1995, dated 1999).
Peptide text beside a SMILES is read from it.

Columns and labels:
LMWH (LHN-1, Logiparin) [1] = assay: Percent reversal of low molecular weight heparin anticoagulation, in vivo canine study, coagulation tests; set-up: species or system dogs; conditions: for aPTT reversal: Logiparin
Method: Anticoagulation reversal was assessed by a number of standard coagulation tests performed upon samples of venous blood: activated clotting time (ACT), heparin concentration by assay for FXa inhibitory activity (FXa), thrombin clotting time (TCT), and heparin concentration by assay for FIIa inhibitory activity (FIIa). Measurements were made 3 minutes prior to heparin reversal (baseline) and 3 minutes, 10 minutes, and 30 minutes post-administration of the heparin reversal agent. […] The coagulation data were corrected for naturally occurring metabolism.

[2] = Platelet and white blood cell count after LMWH reversal, canine study; type: in vivo; conditions: dogs, Logiparin
Method: In addition to the measurements reported on Table 6, studies were conducted to measure the activated partial thromboplastin time (aPTT), platelet count, and white blood cell count. […] However, the [+18B] variant produced greater aPTT reversal than protamine at the 3, 10 and 30 minute measurements (64%, 95%, and 93%, respectively, as compared to 50%, 83%, and 78%, respectively, for protamine).

LMWH (LHN-1, Logiparin) [3] = assay: Percent reversal of LMWH anticoagulation, agents administered at different rates, canine study; type: in vivo, dogs
Method: Anticoagulation reversal was assessed by a number of standard coagulation tests performed upon samples of venous blood in the manner described hereinabove. Measurements were made 3 minutes prior to heparin reversal (baseline) and 3 minutes, 10 minutes, and 30 minutes post-administration of the heparin reversal agent.

[4] = Platelet count, leukocyte count and bleeding time after LMWH reversal at different rates, canine study; type: in vivo, dogs; conditions: dogs, Logiparin; administered over 10 sec
Method: (§1) The anticoagulation-reversing agents were administered rapidly over 10 seconds to maximize hemodynamic effects or more slowly over a 3 minute interval. Changes in LMWH anticoagulation occurring from metabolism alone were determined in a separate group of dogs not given any reversal agent.

[5] = Hemodynamic studies and total toxicity score after LMWH reversal at different rates, canine study; conditions: dogs, Logiparin; administered over 10 sec
Method: as §1
(§2) Hemodynamic studies were conducted by measuring mean arterial pressure (MAP) in mm Mercury, maximum percent changes in cardiac output (CO) and systemic oxygen consumption (VO2), and heart rate (HR) in beats per minute. Measurements and calculations were made at baseline, before LMWH administration, 3 minutes before reversal, every 30 seconds for 5 minutes after reversal, and at 10, 20, and 30 minutes after reversal.
TTS were developed that reflected maximum declines in each of four parameters (MAP, CO, VO2 and HR) over the first 5 minutes after reversal in the same manner as described hereinabove.

[6] = Hemodynamic studies and total toxicity score after LMWH reversal, canine study; conditions: dogs
Method: as §2
Total toxicity scores (TTS) were developed that reflected maximum declines in each of four parameters (MAP, CO, VO2 and HR) over the first 5 minutes after reversal. The maximum changes occurring in an individual dog over the first 5 minutes were divided by the standard deviation derived from the entire group of tested animals and the four scores were added, resulting in a TTS for each individual dog. The TTS values for each dog were then summed to obtain an average TTS and SD for each peptide studied. The more negative the value of TTS, the more toxic the compound.

[7] = administered over 10 sec, 3 min
[8] = administered over 10 sec, 10 min
[9] = administered over 10 sec, 30 min
[10] = Logiparin, maximum percent change

CC(=O)N1CCC[C@H]1C(=O)N[C@@H](C)C(=O)N[C@@H](CCCCN)C(=O)N[C@@H](CCCCN)C(=O)N[C@@H](C)C(=O)N[C@@H](C)C(=O)N[C@@H](CCCCN)C(=O)N[C@@H](CCCCN)C(=O)N[C@@H](C)C(=O)N[C@@H](CCCCN)C(=O)N[C@@H](CCCCN)C(=O)N[C@@H](C)C(=O)N[C@@H](C)C(=O)N[C@@H](CCCCN)C(=O)N[C@@H](CCCCN)C(=O)N[C@@H](C)C(=O)N[C@@H](CCCCN)C(=O)N[C@@H](CCCCN)C(=O)N[C@@H](C)C(=O)N[C@@H](C)C(=O)N[C@@H](CCCCN)C(=O)N[C@@H](CCCCN)C(=O)N[C@@H](C)C(=O)N[C@@H](CCCCN)C(=O)N[C@@H](CCCCN)C(=O)N[C@@H](C)C(=O)N[C@@H](C)C(=O)N[C@@H](CCCCN)C(=O)N[C@@H](CCCCN)C(=O)N[C@@H](C)C(=O)N[C@@H](CCCCN)C(=O)N[C@@H](CCCCN)C(N)=O [[+18B], acetyl-PA(K2 A2 K2 A)4 K2 -amide] (Ac-PAKKAAKKAKKAAKKAKKAAKKAKKAAKKAKK-NH2)
aPTT reversal (LMWH (LHN-1, Logiparin) [1]; dogs, 3 minute measurement): 64% | aPTT reversal (LMWH (LHN-1, Logiparin) [1]; dogs, 10 minute measurement): 95% | aPTT reversal (LMWH (LHN-1, Logiparin) [1]; dogs, 30 minute measurement): 93% | Percent reversal of LMWH anticoagulation, ACT (LMWH (LHN-1, Logiparin) [1]; dogs, Logiparin 150 IU/kg, agent 1.5 mg/kg IV after 30 min, 3 min post-administration, corrected for metabolism): 87% | Percent reversal of LMWH anticoagulation, FNa (LMWH (LHN-1, Logiparin) [1]; same study, 3 min): 96% | Percent reversal of LMWH anticoagulation, FXa (LMWH (LHN-1, Logiparin) [1]; same study, 3 min): 64% | Percent reversal of LMWH anticoagulation, TCT (LMWH (LHN-1, Logiparin) [1]; same study, 3 min): 99% | Percent reversal of LMWH anticoagulation, ACT (LMWH (LHN-1, Logiparin) [1]; same study, 10 min): 93% | Percent reversal of LMWH anticoagulation, FNa (LMWH (LHN-1, Logiparin) [1]; same study, 10 min): 72% | Percent reversal of LMWH anticoagulation, FXa (LMWH (LHN-1, Logiparin) [1]; same study, 10 min): 34% | Percent reversal of LMWH anticoagulation, TCT (LMWH (LHN-1, Logiparin) [1]; same study, 10 min): 95% | Percent reversal of LMWH anticoagulation, ACT (LMWH (LHN-1, Logiparin) [1]; same study, 30 min): 102% | Percent reversal of LMWH anticoagulation, FNa (LMWH (LHN-1, Logiparin) [1]; same study, 30 min): 74% | Percent reversal of LMWH anticoagulation, FXa (LMWH (LHN-1, Logiparin) [1]; same study, 30 min): 52% | Percent reversal of LMWH anticoagulation, TCT (LMWH (LHN-1, Logiparin) [1]; same study, 30 min): 96% | decline in white blood cell count [2]: greatest | mean decline in platelet count [2]: -56% | Percent reversal of LMWH anticoagulation, FNa (LMWH (LHN-1, Logiparin) [3]; [7]): 95% | Percent reversal of LMWH anticoagulation, FXa (LMWH (LHN-1, Logiparin) [3]; [7]): 64% | Percent reversal of LMWH anticoagulation, TCT (LMWH (LHN-1, Logiparin) [3]; [7]): 99% | Percent reversal of LMWH anticoagulation, ACT (LMWH (LHN-1, Logiparin) [3]; [8]): 87% | Percent reversal of LMWH anticoagulation, FNa (LMWH (LHN-1, Logiparin) [3]; [8]): 72% | Percent reversal of LMWH anticoagulation, FXa (LMWH (LHN-1, Logiparin) [3]; [8]): 34% | Percent reversal of LMWH anticoagulation, TCT (LMWH (LHN-1, Logiparin) [3]; [8]): 95% | Percent reversal of LMWH anticoagulation, ACT (LMWH (LHN-1, Logiparin) [3]; [9]): 98% | Percent reversal of LMWH anticoagulation, FNa (LMWH (LHN-1, Logiparin) [3]; [9]): 74% | Percent reversal of LMWH anticoagulation, FXa (LMWH (LHN-1, Logiparin) [3]; [9]): 52% | Percent reversal of LMWH anticoagulation, TCT (LMWH (LHN-1, Logiparin) [3]; [9]): 100% | Percent reversal of LMWH anticoagulation, ACT (LMWH (LHN-1, Logiparin) [3]; dogs, Logiparin, agent administered over 10 sec, 3 min post-administration): 87% | Maximal decline in leukocyte count [4]: -21% | Maximal thrombocytopenia [4]: -56% | Total Toxicity Score [5]: -3.1 ± 1.5 | ΔCO [5]: -18% | ΔHr [5]: -9 beats per minute | ΔMAP [5]: -10 mm Mercury | ΔVO2 [5]: -12% | Total Toxicity Score ([6]; LMWH, 50% less dose (1:2 peptide to LMWH)): about -1.62 | maximum mean increase in pulmonary artery diastolic (PAD) pressure ([6]; Logiparin): no increase | maximum mean increase in pulmonary artery systolic (PAS) pressure ([6]; Logiparin): no increase | ΔHR ([6]; Logiparin): -9 beats per minute | ΔMAP ([6]; Logiparin): -10 mm Mercury | Total Toxicity Score ([6]; Logiparin, first 5 minutes after reversal, 1:1 peptide to LMWH): -4.1 ± 1.6 | ΔCO [6, 10]: -18% | ΔVO2 [6, 10]: -12%
